{
  "source": "paper doi:10.1101/2020.06.11.145995v1",
  "about": "(biorxiv, 2020)",
  "assay_in_all_cases": "biochemical",
  "key": {"TAOK2": {"target": "TAOK2 (Homo sapiens, UniProt Q9UL54)"}, "AAK1": {"target": "AAK1 (Homo sapiens, UniProt Q2M2I8)"}, "p38-gamma": {"target": "p38-gamma (Homo sapiens, UniProt P53778)", "sequence (P53778 whole entry)": "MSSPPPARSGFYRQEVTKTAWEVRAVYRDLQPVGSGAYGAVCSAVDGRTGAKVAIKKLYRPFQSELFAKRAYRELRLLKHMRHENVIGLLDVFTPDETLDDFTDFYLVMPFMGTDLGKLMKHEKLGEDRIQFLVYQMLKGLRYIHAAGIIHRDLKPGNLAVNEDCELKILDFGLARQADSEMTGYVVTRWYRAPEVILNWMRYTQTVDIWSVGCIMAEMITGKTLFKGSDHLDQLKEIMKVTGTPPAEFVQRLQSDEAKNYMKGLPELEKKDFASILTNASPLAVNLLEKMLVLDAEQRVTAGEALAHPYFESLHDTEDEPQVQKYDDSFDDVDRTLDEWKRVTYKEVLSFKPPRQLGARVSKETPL"}, "PRKCD": {"target": "PRKCD (Homo sapiens, UniProt Q05655)"}, "TNNI3K": {"target": "TNNI3K (Homo sapiens, UniProt Q59H18)"}, "PFTK1": {"target": "PFTK1 (Homo sapiens, UniProt O94921)", "sequence (O94921 whole entry)": "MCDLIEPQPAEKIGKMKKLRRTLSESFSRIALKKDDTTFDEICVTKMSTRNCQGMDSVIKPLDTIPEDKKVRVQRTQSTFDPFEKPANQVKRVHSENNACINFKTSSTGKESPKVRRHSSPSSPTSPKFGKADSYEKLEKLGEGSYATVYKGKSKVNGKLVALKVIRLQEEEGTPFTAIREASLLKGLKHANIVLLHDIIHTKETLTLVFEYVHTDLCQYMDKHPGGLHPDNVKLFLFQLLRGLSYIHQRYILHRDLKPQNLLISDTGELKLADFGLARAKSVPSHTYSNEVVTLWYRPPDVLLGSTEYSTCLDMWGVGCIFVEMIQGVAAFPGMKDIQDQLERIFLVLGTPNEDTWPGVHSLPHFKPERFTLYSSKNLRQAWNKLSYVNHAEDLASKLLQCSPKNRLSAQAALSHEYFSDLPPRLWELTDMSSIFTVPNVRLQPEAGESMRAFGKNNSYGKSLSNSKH"}, "PRKX": {"target": "PRKX (Homo sapiens, UniProt P51817)", "sequence (P51817 whole entry)": "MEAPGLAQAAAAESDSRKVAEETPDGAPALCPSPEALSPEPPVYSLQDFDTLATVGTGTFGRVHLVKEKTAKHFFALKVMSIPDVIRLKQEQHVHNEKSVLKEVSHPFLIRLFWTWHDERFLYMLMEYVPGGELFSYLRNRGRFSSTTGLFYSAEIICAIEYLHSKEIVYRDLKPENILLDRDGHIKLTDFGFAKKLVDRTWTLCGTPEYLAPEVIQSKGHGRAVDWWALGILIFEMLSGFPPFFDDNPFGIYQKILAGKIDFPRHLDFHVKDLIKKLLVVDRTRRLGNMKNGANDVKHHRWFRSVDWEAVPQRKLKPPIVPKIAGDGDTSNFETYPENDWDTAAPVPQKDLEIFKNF"}, "ULK1": {"target": "ULK1 (Homo sapiens, UniProt O75385)"}, "QSK": {"target": "QSK (Homo sapiens, UniProt Q9Y2K2)"}, "TLK1": {"target": "TLK1 (Homo sapiens, UniProt Q9UKI8)"}, "SRPK1": {"target": "SRPK1 (Homo sapiens, UniProt Q96SB4)"}, "OSR1": {"target": "OSR1 (Homo sapiens, UniProt O95747)"}, "NLK": {"target": "NLK (Homo sapiens, UniProt Q9UBE8)", "sequence (Q9UBE8 whole entry)": "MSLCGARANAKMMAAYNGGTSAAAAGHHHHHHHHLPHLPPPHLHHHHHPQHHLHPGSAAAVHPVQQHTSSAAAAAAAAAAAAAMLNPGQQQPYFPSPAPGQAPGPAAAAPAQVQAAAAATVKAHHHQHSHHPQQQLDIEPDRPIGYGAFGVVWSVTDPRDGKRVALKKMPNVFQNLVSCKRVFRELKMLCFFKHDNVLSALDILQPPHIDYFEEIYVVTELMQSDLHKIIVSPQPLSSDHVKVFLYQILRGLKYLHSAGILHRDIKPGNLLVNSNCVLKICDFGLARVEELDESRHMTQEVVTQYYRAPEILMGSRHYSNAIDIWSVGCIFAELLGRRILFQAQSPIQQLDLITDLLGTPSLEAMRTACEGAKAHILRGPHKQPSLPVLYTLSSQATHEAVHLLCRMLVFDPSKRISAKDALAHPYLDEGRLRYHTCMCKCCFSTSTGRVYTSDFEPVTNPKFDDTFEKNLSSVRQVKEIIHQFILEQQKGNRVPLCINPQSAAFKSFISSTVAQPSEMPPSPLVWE"}, "SIK2": {"target": "SIK2 (Homo sapiens, UniProt Q9H0K1)"}, "PFTAIRE2": {"target": "PFTAIRE2 (Homo sapiens, UniProt Q96Q40)"}, "RPS6KA4": {"target": "RPS6KA4 (Homo sapiens, UniProt O75676)", "sequence (O75676 whole entry)": "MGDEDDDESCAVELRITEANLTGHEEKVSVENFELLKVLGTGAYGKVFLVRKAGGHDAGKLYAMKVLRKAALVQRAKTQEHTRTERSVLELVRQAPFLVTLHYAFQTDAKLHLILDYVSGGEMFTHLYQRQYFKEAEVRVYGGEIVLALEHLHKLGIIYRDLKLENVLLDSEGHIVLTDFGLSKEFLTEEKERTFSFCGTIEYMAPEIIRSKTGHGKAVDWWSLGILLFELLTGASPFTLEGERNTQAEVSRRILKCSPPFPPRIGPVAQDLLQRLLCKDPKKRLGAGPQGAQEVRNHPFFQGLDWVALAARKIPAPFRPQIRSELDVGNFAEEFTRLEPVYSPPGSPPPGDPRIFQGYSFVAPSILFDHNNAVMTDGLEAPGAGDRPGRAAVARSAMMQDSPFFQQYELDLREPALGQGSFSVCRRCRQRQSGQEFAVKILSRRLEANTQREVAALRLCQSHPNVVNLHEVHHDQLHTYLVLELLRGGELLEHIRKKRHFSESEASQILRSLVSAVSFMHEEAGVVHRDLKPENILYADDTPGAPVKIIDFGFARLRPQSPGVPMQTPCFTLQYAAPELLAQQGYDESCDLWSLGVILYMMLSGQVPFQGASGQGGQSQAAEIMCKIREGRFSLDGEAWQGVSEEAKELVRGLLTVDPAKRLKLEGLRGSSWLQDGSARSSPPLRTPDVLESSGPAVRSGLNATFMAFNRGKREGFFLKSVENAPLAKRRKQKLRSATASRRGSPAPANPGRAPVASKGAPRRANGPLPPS"}, "S6K1": {"target": "S6K1 (Homo sapiens, UniProt P23443)"}, "PIK3CA(I800L)": {"target": "PIK3CA(I800L) (Homo sapiens, UniProt P42336, I800L)"}, "RIPK4": {"target": "RIPK4 (Homo sapiens, UniProt P57078)"}, "NDR2": {"target": "NDR2 (Homo sapiens, UniProt Q9Y2H1)"}, "NEK7": {"target": "NEK7 (Homo sapiens, UniProt Q8TDX7)", "sequence (Q8TDX7 whole entry)": "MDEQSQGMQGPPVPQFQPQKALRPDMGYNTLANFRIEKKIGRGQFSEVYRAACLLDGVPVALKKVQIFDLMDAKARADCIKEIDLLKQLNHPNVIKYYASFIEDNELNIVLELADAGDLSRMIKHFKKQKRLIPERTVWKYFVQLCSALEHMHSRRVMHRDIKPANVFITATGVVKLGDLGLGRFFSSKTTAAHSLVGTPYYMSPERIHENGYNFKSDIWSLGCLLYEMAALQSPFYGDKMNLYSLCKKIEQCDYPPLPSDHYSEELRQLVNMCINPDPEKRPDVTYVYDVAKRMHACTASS"}, "MKK7": {"target": "MKK7 (Homo sapiens, UniProt O14733)", "sequence (O14733 whole entry)": "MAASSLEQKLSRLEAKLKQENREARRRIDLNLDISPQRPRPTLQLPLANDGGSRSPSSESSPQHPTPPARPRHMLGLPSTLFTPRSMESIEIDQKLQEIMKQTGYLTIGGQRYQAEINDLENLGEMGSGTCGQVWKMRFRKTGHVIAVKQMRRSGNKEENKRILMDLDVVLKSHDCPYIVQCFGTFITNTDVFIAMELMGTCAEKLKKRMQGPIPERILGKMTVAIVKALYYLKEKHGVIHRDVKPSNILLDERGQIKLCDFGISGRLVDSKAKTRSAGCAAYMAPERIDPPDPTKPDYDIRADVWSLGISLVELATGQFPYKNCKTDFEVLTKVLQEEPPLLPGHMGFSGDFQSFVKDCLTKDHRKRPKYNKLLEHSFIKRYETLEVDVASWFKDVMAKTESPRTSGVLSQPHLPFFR"}, "YANK2": {"target": "YANK2 (Homo sapiens, UniProt Q9NY57)"}, "PRKG1": {"target": "PRKG1 (Homo sapiens, UniProt Q13976)"}, "VRK2": {"target": "VRK2 (Homo sapiens, UniProt Q86Y07)"}, "PRKD1": {"target": "PRKD1 (Homo sapiens, UniProt Q15139)", "sequence (Q15139 whole entry)": "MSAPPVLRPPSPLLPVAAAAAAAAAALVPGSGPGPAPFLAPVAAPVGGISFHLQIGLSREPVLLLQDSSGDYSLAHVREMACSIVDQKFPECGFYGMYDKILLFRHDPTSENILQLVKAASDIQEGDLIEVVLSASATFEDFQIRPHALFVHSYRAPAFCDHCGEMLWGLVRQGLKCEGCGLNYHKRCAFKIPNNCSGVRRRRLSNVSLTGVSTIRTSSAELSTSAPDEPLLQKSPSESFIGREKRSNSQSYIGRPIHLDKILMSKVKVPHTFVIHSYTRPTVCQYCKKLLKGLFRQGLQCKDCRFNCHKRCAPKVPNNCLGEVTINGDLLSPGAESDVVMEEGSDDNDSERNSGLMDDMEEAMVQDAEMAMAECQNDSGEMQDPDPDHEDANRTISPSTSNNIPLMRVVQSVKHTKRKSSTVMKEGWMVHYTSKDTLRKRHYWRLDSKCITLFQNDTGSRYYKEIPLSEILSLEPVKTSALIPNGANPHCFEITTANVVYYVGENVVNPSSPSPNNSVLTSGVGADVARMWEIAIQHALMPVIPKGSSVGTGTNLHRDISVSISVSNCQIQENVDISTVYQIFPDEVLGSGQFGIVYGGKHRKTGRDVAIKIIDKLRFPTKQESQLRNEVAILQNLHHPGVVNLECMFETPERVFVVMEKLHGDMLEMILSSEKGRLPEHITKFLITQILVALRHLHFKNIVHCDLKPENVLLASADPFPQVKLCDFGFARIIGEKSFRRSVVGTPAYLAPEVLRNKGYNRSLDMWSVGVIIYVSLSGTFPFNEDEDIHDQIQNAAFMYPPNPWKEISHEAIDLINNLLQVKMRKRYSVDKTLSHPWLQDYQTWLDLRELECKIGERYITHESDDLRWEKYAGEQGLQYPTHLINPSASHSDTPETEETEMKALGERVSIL"}, "RIPK5": {"target": "RIPK5 (Homo sapiens, UniProt Q6XUX3)"}, "SNRK": {"target": "SNRK (Homo sapiens, UniProt Q9NRH2)", "sequence (Q9NRH2 whole entry)": "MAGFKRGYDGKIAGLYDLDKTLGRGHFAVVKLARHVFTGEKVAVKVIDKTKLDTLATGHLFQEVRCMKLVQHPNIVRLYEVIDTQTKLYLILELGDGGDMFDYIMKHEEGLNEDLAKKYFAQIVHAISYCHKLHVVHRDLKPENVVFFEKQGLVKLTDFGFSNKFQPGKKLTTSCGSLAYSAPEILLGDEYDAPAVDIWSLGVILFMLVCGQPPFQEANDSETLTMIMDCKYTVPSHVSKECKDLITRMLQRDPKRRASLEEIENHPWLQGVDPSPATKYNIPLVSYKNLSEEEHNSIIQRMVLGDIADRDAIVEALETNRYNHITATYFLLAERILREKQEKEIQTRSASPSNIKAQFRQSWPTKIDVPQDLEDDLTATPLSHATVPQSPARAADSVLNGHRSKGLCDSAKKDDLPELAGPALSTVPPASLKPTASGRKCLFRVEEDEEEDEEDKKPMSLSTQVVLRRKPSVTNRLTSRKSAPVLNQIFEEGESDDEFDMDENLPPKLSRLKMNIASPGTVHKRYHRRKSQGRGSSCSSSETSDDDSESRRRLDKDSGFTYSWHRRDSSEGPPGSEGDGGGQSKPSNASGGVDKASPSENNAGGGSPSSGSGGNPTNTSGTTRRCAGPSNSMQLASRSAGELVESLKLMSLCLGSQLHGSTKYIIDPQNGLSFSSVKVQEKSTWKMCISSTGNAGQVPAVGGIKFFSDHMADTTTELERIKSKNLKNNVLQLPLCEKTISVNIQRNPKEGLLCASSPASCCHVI"}, "TNK1": {"target": "TNK1 (Homo sapiens, UniProt Q13470)"}, "[1]": {"conditions": "read-out: CPT-1-70-1 (1μM) % control"}, "[2]": {"conditions": "read-out: HYJ-2-002-1 (1μM) % control"}},
  "note": "Read-outs that look alike come from different tables or passages of the source.",
  "data": [
    {"smiles": "CN1CCN(c2ccc(Nc3nc(Oc4ccc(NC(=O)CCl)cc4)c4cc[nH]c4n3)cc2)CC1", "note": "[CPT1-70-1]", "values": [
      {"measurement": "remaining activity at 1 µM", "setting": "TAOK2; [1]", "result": 65, "unit": "%"},
      {"measurement": "remaining activity at 1 µM", "setting": "AAK1; [1]", "result": 18, "unit": "%"},
      {"measurement": "remaining activity at 1 µM", "setting": "p38-gamma; [1]", "result": 100, "unit": "%"},
      {"measurement": "remaining activity at 1 µM", "setting": "PRKCD; [1]", "result": 100, "unit": "%"},
      {"measurement": "remaining activity at 1 µM", "setting": "TNNI3K; [1]", "result": 100, "unit": "%"},
      {"measurement": "remaining activity at 1 µM", "setting": "PFTK1; [1]", "result": 100, "unit": "%"},
      {"measurement": "remaining activity at 1 µM", "setting": "PRKX; [1]", "result": 100, "unit": "%"},
      {"measurement": "remaining activity at 1 µM", "setting": "ULK1; [1]", "result": 32, "unit": "%"},
      {"measurement": "remaining activity at 1 µM", "setting": "QSK; [1]", "result": 100, "unit": "%"},
      {"measurement": "remaining activity at 1 µM", "setting": "TLK1; [1]", "result": 100, "unit": "%"},
      {"measurement": "remaining activity at 1 µM", "setting": "SRPK1; [1]", "result": 44, "unit": "%"},
      {"measurement": "remaining activity at 1 µM", "setting": "OSR1; [1]", "result": 96, "unit": "%"},
      {"measurement": "remaining activity at 1 µM", "setting": "NLK; [1]", "result": 100, "unit": "%"},
      {"measurement": "remaining activity at 1 µM", "setting": "SIK2; [1]", "result": 57, "unit": "%"},
      {"measurement": "remaining activity at 1 µM", "setting": "PFTAIRE2; [1]", "result": 100, "unit": "%"},
      {"measurement": "remaining activity at 1 µM", "setting": "RPS6KA4; read-out: CPT-1-70-1 (1μM) % control, Kin.Dom.1-N-terminal", "result": 100, "unit": "%"},
      {"measurement": "remaining activity at 1 µM", "setting": "RPS6KA4; read-out: CPT-1-70-1 (1μM) % control, Kin.Dom.2-C-terminal", "result": 79, "unit": "%"},
      {"measurement": "remaining activity at 1 µM", "setting": "S6K1; [1]", "result": 100, "unit": "%"},
      {"measurement": "remaining activity at 1 µM", "setting": "PIK3CA(I800L); [1]", "result": 100, "unit": "%"},
      {"measurement": "remaining activity at 1 µM", "setting": "RIPK4; [1]", "result": 100, "unit": "%"},
      {"measurement": "remaining activity at 1 µM", "setting": "NDR2; [1]", "result": 61, "unit": "%"},
      {"measurement": "remaining activity at 1 µM", "setting": "NEK7; [1]", "result": 100, "unit": "%"},
      {"measurement": "remaining activity at 1 µM", "setting": "MKK7; [1]", "result": 8.1, "unit": "%"},
      {"measurement": "remaining activity at 1 µM", "setting": "YANK2; [1]", "result": 100, "unit": "%"},
      {"measurement": "remaining activity at 1 µM", "setting": "PRKG1; [1]", "result": 100, "unit": "%"},
      {"measurement": "remaining activity at 1 µM", "setting": "VRK2; [1]", "result": 100, "unit": "%"},
      {"measurement": "remaining activity at 1 µM", "setting": "PRKD1; [1]", "result": 52, "unit": "%"},
      {"measurement": "remaining activity at 1 µM", "setting": "RIPK5; [1]", "result": 33, "unit": "%"},
      {"measurement": "remaining activity at 1 µM", "setting": "SNRK; [1]", "result": 55, "unit": "%"},
      {"measurement": "remaining activity at 1 µM", "setting": "TNK1; [1]", "result": 0.95, "unit": "%"}
    ]},
    {"smiles": "CCN1CCN(Cc2ccc(NC(=O)c3ccc(C)c(CCc4cnc5[nH]ccc5c4OC)c3)cc2C(F)(F)F)CC1", "note": "[HYJ-2-002-1]", "values": [
      {"measurement": "remaining activity at 1 µM", "setting": "TAOK2; [2]", "result": 18, "unit": "%"},
      {"measurement": "remaining activity at 1 µM", "setting": "AAK1; [2]", "result": 100, "unit": "%"},
      {"measurement": "remaining activity at 1 µM", "setting": "p38-gamma; [2]", "result": 54, "unit": "%"},
      {"measurement": "remaining activity at 1 µM", "setting": "PRKCD; [2]", "result": 78, "unit": "%"},
      {"measurement": "remaining activity at 1 µM", "setting": "TNNI3K; [2]", "result": 6.6, "unit": "%"},
      {"measurement": "remaining activity at 1 µM", "setting": "PFTK1; [2]", "result": 100, "unit": "%"},
      {"measurement": "remaining activity at 1 µM", "setting": "PRKX; [2]", "result": 78, "unit": "%"},
      {"measurement": "remaining activity at 1 µM", "setting": "ULK1; [2]", "result": 89, "unit": "%"},
      {"measurement": "remaining activity at 1 µM", "setting": "QSK; [2]", "result": 100, "unit": "%"},
      {"measurement": "remaining activity at 1 µM", "setting": "TLK1; [2]", "result": 74, "unit": "%"},
      {"measurement": "remaining activity at 1 µM", "setting": "SRPK1; [2]", "result": 83, "unit": "%"},
      {"measurement": "remaining activity at 1 µM", "setting": "OSR1; [2]", "result": 93, "unit": "%"},
      {"measurement": "remaining activity at 1 µM", "setting": "NLK; [2]", "result": 28, "unit": "%"},
      {"measurement": "remaining activity at 1 µM", "setting": "SIK2; [2]", "result": 34, "unit": "%"},
      {"measurement": "remaining activity at 1 µM", "setting": "PFTAIRE2; [2]", "result": 94, "unit": "%"},
      {"measurement": "remaining activity at 1 µM", "setting": "RPS6KA4; read-out: HYJ-2-002-1 (1μM) % control, Kin.Dom.1-N-terminal", "result": 99, "unit": "%"},
      {"measurement": "remaining activity at 1 µM", "setting": "RPS6KA4; read-out: HYJ-2-002-1 (1μM) % control, Kin.Dom.2-C-terminal", "result": 100, "unit": "%"},
      {"measurement": "remaining activity at 1 µM", "setting": "S6K1; [2]", "result": 55, "unit": "%"},
      {"measurement": "remaining activity at 1 µM", "setting": "PIK3CA(I800L); [2]", "result": 100, "unit": "%"},
      {"measurement": "remaining activity at 1 µM", "setting": "RIPK4; [2]", "result": 100, "unit": "%"},
      {"measurement": "remaining activity at 1 µM", "setting": "NDR2; [2]", "result": 100, "unit": "%"},
      {"measurement": "remaining activity at 1 µM", "setting": "NEK7; [2]", "result": 100, "unit": "%"},
      {"measurement": "remaining activity at 1 µM", "setting": "MKK7; [2]", "result": 8.2, "unit": "%"},
      {"measurement": "remaining activity at 1 µM", "setting": "YANK2; [2]", "result": 100, "unit": "%"},
      {"measurement": "remaining activity at 1 µM", "setting": "PRKG1; [2]", "result": 100, "unit": "%"},
      {"measurement": "remaining activity at 1 µM", "setting": "VRK2; [2]", "result": 100, "unit": "%"},
      {"measurement": "remaining activity at 1 µM", "setting": "PRKD1; [2]", "result": 90, "unit": "%"},
      {"measurement": "remaining activity at 1 µM", "setting": "RIPK5; [2]", "result": 86, "unit": "%"},
      {"measurement": "remaining activity at 1 µM", "setting": "SNRK; [2]", "result": 100, "unit": "%"},
      {"measurement": "remaining activity at 1 µM", "setting": "TNK1; [2]", "result": 15, "unit": "%"}
    ]}
  ]
}
